The results in this text go back to patent publication US20250282799A1, “SUBSTITUTED PYRIDO[4,3-d]PYRIMIDINES AS KRAS MODULATORS” (Alterome Therapeutics, Inc., priority 2023, published 2025).

In data set [1] the test system is KRAS G12V dependent lung adenocarcinoma cell line, NCI-H441. As to the kind of experiment: Cellular pERK (Thr202/Tyr204) FRET/HTRF assay. The note with it: Homo sapiens. It counts as cell-based. Put shortly: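 Read-out is a wash-free FRET sandwich immunoassay for endogenous ERK1/2 phosphorylated on Thr202/Tyr204. Signal was measured in NCI-H441 lung adenocarcinoma cells after 1 hr compound exposure at 37 °C. IC50 values come from fitted concentration-response curves.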

The nature of data set [2]: Pharmacokinetic evaluation, single dosing (oral and intravenous) in rats. In kind it is in vivo, male Sprague-Dawley rats. On the set-up: unit not given here. The note with it: rat, plasma. As to the method: Pharmacokinetic profile for test compound was measured by single dosing in male Sprague-Dawley rats. Animal weights were typically over 200 grams, and animals were allowed to acclimate to their new environment for at least 3 days prior to the initiation of any studies. One set of animals was dosed intravenous with test compound, 2 mg/kg in 20% PEG400, 10% HS-15 Solutol, 70% 50 mM citrate buffer (pH 4.0). Intravenous dosing solution concentration was 1.0 mg/mL. Time of blood sampling was 5 minutes, 15 minutes, 30 minutes, 1 hour, 2 hours, 4 hours, 8 hours, and 24 hours following intravenous dosing. Another set of animals was dosed orally with test compound, 30 mg/kg in 20% PEG400, 10% HS-15 Solutol, 70% 50 mM citrate buffer (pH 4.0). Oral dosing solution concentration was 3.0 mg/mL. Time of blood sampling was 15 minutes, 30 minutes, 1 hour, 2 hours, 4 hours, 8 hours, and 24 hours following oral dosing. Blood samples (˜0.2 mL/sample) were collected via jugular vein and placed in tubes containing Heparin-Na. The blood samples in tubes were mixed and then placed on wet ice prior to centrifugation for plasma. The blood samples were centrifuged at 4000 g for 5 minutes at 4° C. to obtain plasma. The obtained plasma was separated and stored frozen at approximately −80° C.
All the plasma samples were analyzed using a Shimadzu (DGU-405) HPLC with an API 6500+MS/MS system following the manufacturer's instructions. All the analytes were detected with positive-mode electrospray ionization (ES+). A standard curve for each test compound was generated and used to measure test compound concentrations in the rat plasma samples. Based on the time course sampling, an area under the curve (AUC) was calculated for the oral group and intravenous group. The percentage of rat bioavailability is calculated based on the equation shown below.
where F is bioavailability, AUCPO is area under curve of oral dosing, AUCIV is area under curve of intravenous dosing, DoseIV is the intravenous dose and DosePO is the oral dose. The oral dosing for the experiments presented in Table 5 was performed at 10 mg/kg unless noted otherwise.

The target of the next data set is KRAS (G12V)/CRAF (Homo sapiens (Human), UniProt P01116, G12V). As to the kind of experiment: TR-FRET biochemical KRAS:CRAF protein:protein interaction assay, KRAS (G12V). It counts as binding. The conditions noted are these: GMPPNP loaded Biotin-KRAS (G12V), FLAG CRAF RBD; read-out: TR-Fret_PPI KRAS (G12V)/CRAF IC50. Here is the method:
(§1) The effect of test compounds on KRAS and CRAF protein: protein interaction (PPI) was measured by time resolved fluorescence resonance energy transfer (TR-FRET) Ras binding domain (RBD) assay, which uses a signal generated through fluorescent resonance energy transfer between a donor and an acceptor molecule when in close proximity to each other. Interference from buffer, media, etc. is reduced by dual-wavelength detection; the energy pulse from the excitation source is followed by a time delay, which allows interfering short-lived fluorescence to decay (Degorce et al. 2009).
(§2) The KRAS: CRAF PPI assay can be utilized to identify KRAS ‘ON’ state inhibitors, as the KRAS protein is loaded with GMPPNP (a non-hydrolyzable GTP analog), which represents the active KRAS ‘ON’ state. FLAG-tagged CRAF RBD binding to the GMPPNP loaded biotin-tagged KRAS will result in a fluorescence energy transfer from the donor (Tb-anti-FLAG, emission 620 nm) to the acceptor (SA-XL665, emission 665 nm). Disruption of KRAS and CRAF binding will reduce the TR-FRET signal.
(§3) Test compound was dissolved in DMSO to create a 1 mM stock solution. A 45 μL volume of stock solution was transferred to a 384well polypropylene plate. A 3fold, 10point dilution was performed by transferring 15 μL of test compound solution into 30 μL of DMSO.
(§4) Assay buffer A was prepared with […] Hepes, pH7.3, 0.002% Tween 20, 0.1% BSA, […] NaCl, 5 mM MgCl2, and 10 uM GMP-PNP. 4× KRAS Solution was prepared with 80 nM of Biotin-KRAS (G12D/V), GMPPNP loaded or Biotin-KRAS (WT), GMPPNP loaded protein in assay buffer A. 4× Raf RBD Solution was prepared with 400 nM FLAG CRAF RBD in assay buffer A. 2× Detection Mixture was prepared with 2 nM Tb-anti-FLAG antibody and 10 nM and 10 nM SA-XL665 in assay buffer A.
(§5) A volume of 100 nL of 100× test compound working solution or DMSO vehicle control solution was dispensed to each well (duplicate for each concentration) of a 384-well ProxiPlate Plus assay plate. A volume of 2.5 μL of 4× KRAS Solution was added to each well of the assay plate for a final concentration of 20 nM Biotin-KRAS (G12D/V),GMPPNP loaded or 20 nM Biotin-KRAS (WT), GMPPNP. For low control, add 2.5 μL of assay buffer (no KRAS protein). Pre-incubate assay plate for 30 minutes at room temperature. Following pre-incubation of test compound or DMSO with Biotin-KRAS (G12D/V),GMPPNP loaded or Biotin-KRAS (WT),GMPPNP, a volume of 2.5 μL of 4× FLAG cRAF RBD Solution was added to each well of the assay plate for a final concentration of 100 nM FLAG CRAF RBD. The assay plate was subjected to centrifuge at 1000 rpm for 1 minute and pre-incubate assay plate for 150 minutes at room temperature. Following the pre-incubation with FLAG cRAF RBD, a volume of 5 μl of 2× Detection Mixture was added to each well of the assay plate for a final concentration of 1 nM Tb-anti-FLAG and 5 nM SA-XL665. The assay plate was centrifuged at 1000 rpm for 1 minute and incubated for 90 minutes at room temperature. TR-FRET signal was measured on a BioTek Synergy Neo2 microplate reader (excitation at 340 nm, emission at 665 nn and 620 nm).
(§6) TR-FRET ratios were calculated by dividing the acceptor emission value (665 nm) by the donor emission value (620 nm) for each sample.
(§7) Percent inhibition was calculated by multiplying the normalized TR-FRET ratio by 100, where TR-FRET ratio^HIGH was the TR-FRET ratio obtained from wells with 1% DMSO and complete reaction mixture, TR-FRET ratio^LOW was the ratio obtained from wells with 1% DMSO and reaction mixture without KRAS protein and TR-FRET ratio^SAMPLE was the TR-FRET ratio from wells with test compound and complete reaction mixture. The IC50 values were calculated from normalized TR-FRET ratios with the Levenberg-Marquardt 4 parameter fitting procedure.
(§8) This assay quantifies the interaction of a KRAS mutant protein (e.g., G12V) with the CRAF Ras-binding domain (RBD). […]

The next data set deals with KRAS (G12D)/CRAF (Homo sapiens (Human), UniProt P01116, G12D). Nature of the data set: TR-FRET biochemical KRAS:CRAF protein:protein interaction assay, KRAS (G12D). It counts as binding. The conditions noted are these: GMPPNP loaded Biotin-KRAS (G12D), FLAG CRAF RBD; read-out: TR-Fret_PPI KRAS (G12D)/CRAF IC50. Here is the method: as §1, §2, §3, §4, §5, §6, §7, §8

[3] abbreviates: NCI-H441, pERK HTRF, NCI-H441 cells (KRAS G12V).
[4] abbreviates: NCI-H441, cellular pERK (Thr202/Tyr204) HTRF, NCI-H441 cells.

Sequence of KRAS (G12V)/CRAF (P01116-2 other isoform, or with tags, fused parts or gaps G12V): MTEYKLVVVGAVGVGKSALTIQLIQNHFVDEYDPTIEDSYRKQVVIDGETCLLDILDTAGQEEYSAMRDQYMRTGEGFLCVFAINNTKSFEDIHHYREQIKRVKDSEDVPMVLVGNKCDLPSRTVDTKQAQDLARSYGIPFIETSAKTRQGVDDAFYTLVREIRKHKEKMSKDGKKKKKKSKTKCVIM
Sequence of KRAS (G12D)/CRAF (P01116-2 other isoform, or with tags, fused parts or gaps G12D): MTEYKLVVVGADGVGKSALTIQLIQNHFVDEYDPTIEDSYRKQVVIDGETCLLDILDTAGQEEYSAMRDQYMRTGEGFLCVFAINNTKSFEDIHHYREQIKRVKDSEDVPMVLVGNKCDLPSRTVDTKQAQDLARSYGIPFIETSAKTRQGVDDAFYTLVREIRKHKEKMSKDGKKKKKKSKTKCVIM

As for `[2H]C([2H])(Oc1nc(N2CCCO[C@H]3C(F)[C@H]32)c2cnc(-c3cc(N)cc4ccc(F)c(C#C)c34)c(F)c2n1)[C@@]12CCCN1C[C@H](F)C2` (stereo in doubt) [Example 89, 5-Ethynyl-6-fluoro-4-(8-fluoro-4-((1R,7S,8R)-8-fluoro-2-oxa-6-azabicyclo[5.1.0]octan-6-yl)-2-(((2R,7aS)-2-fluorotetrahydro-1H-pyrrolizin-7a(5H)-yl)methoxy-d2)pyrido[4,3-d]pyrimidin-7-yl)naphthalen-2-amine], in data set [1] (setting [3]), the IC50 was under 50 nM. Also, in data set [2], the “IV (dose 2 mg/kg) (AUC/D) (h*mg/mL)” value came to 323 and the “PO (dose 10 mg/kg) (AUC/D) (h*mg/mL)” value is 22.

Consider `[2H]C([2H])(Oc1nc(N2CCCO[C@H]3[C@H](F)[C@H]32)c2cnc(-c3cc(N)cc4cc(F)c(F)c(C#C)c34)c(F)c2n1)[C@@]12CCCN1C[C@H](F)C2` [Example 24, 5-Ethynyl-6,7-difluoro-4-(8-fluoro-4-((1R,7S,8R)-8-fluoro-2-oxa-6-azabicyclo[5.1.0]octan-6-yl)-2-(((2R,7aS)-2-fluorotetrahydro-1H-pyrrolizin-7a(5H)-yl)methoxy-d2)pyrido[4,3-d]pyrimidin-7-yl)naphthalen-2-amine], for which the IC50 in data set [1] (setting [3]) is under 50 nM. Also, in data set [2], the “IV (dose 2 mg/kg) (AUC/D) (h*mg/mL)” value was 405 and the “PO (dose 10 mg/kg) (AUC/D) (h*mg/mL)” value was determined as 35.

For the molecule `[2H]C([2H])(Oc1nc(N2CCOC[C@H]3[C@H](Cl)[C@H]32)c2cnc(-c3cc(N)cc4ccc(F)c(C#C)c34)c(F)c2n1)[C@@]12CCCN1[C@H](C)[C@H](F)C2` [Example 340, 4-(4-((1S,7S,8S)-8-Chloro-5-oxa-2-azabicyclo[5.1.0]octan-2-yl)-8-fluoro-2-(((2R,3R,7aS)-2-fluoro-3-methyltetrahydro-1H-pyrrolizin-7a(5H)-yl)methoxy-d2)pyrido[4,3-d]pyrimidin-7-yl)-5-ethynyl-6-fluoronaphthalen-2-amine], the figures for the IC50 (in data set [1] (setting [4]); at KRAS (G12V)/CRAF; on KRAS (G12D)/CRAF) were under 50 nM, 50.1 nM and 7.14 nM, respectively.

For `[2H]C([2H])(Oc1nc(N2CCCC[C@@H]3[C@@H](Cl)[C@@H]32)c2cnc(-c3cc(N)cc4ccc(F)c(C#C)c34)c(F)c2n1)[C@@]12CCCN1C[C@H](F)C2` [Example 341, 4-(4-((1R,7S,8R)-8-chloro-2-azabicyclo[5.1.0]octan-2-yl)-8-fluoro-2-(((2R,7aS)-2-fluorotetrahydro-1H-pyrrolizin-7a(5H)-yl)methoxy-d2)pyrido[4,3-d]pyrimidin-7-yl)-5-ethynyl-6-fluoronaphthalen-2-amine], the IC50 was 500 to 10000 nM in data set [1] (setting [4]), at least 10000 nM on KRAS (G12V)/CRAF and 1790 nM on KRAS (G12D)/CRAF.

`[2H]C([2H])(Oc1nc(N2CCCC[C@H]3[C@H](Cl)[C@H]32)c2cnc(-c3cc(N)cc4ccc(F)c(C#C)c34)c(F)c2n1)[C@@]12CCCN1C[C@H](F)C2` [Example 342, 4-(4-((1S,7R,8S)-8-chloro-2-azabicyclo[5.1.0]octan-2-yl)-8-fluoro-2-(((2R,7aS)-2-fluorotetrahydro-1H-pyrrolizin-7a(5H)-yl)methoxy-d2)pyrido[4,3-d]pyrimidin-7-yl)-5-ethynyl-6-fluoronaphthalen-2-amine]: the IC50 in data set [1] (setting [4]) is under 50 nM; on KRAS (G12V)/CRAF, 54.7 nM; on KRAS (G12D)/CRAF, 9.04 nM.

For `[2H]C([2H])(Oc1nc(N2CCCC[C@@H]3[C@H](Cl)[C@@H]32)c2cnc(-c3cc(N)cc4ccc(F)c(C#C)c34)c(F)c2n1)[C@@]12CCCN1C[C@H](F)C2` [Example 343, 4-(4-((1R,7S,8S)-8-chloro-2-azabicyclo[5.1.0]octan-2-yl)-8-fluoro-2-(((2R,7aS)-2-fluorotetrahydro-1H-pyrrolizin-7a(5H)-yl)methoxy-d2)pyrido[4,3-d]pyrimidin-7-yl)-5-ethynyl-6-fluoronaphthalen-2-amine], the IC50 in data set [1] (setting [4]) is 500 to 10000 nM; at KRAS (G12V)/CRAF, at least 10000 nM; on KRAS (G12D)/CRAF it was 3000 nM.

For `[2H]C([2H])(Oc1nc(N2CCCC[C@H]3[C@@H](Cl)[C@H]32)c2cnc(-c3cc(N)cc4ccc(F)c(C#C)c34)c(F)c2n1)[C@@]12CCCN1C[C@H](F)C2` [Example 344, 4-(4-((1S,7R,8R)-8-chloro-2-azabicyclo[5.1.0]octan-2-yl)-8-fluoro-2-(((2R,7aS)-2-fluorotetrahydro-1H-pyrrolizin-7a(5H)-yl)methoxy-d2)pyrido[4,3-d]pyrimidin-7-yl)-5-ethynyl-6-fluoronaphthalen-2-amine], the IC50 in data set [1] (setting [4]) is 500 to 10000 nM; on KRAS (G12V)/CRAF it was at least 10000 nM; at KRAS (G12D)/CRAF, 1930 nM.
